This experiment deals with T1, Recombinant (1-346) HPK1 (h) (Homo sapiens, UniProt Q92918).
T1 construct: Recombinant (1-346) HPK1 (h) is incubated with 8 mM MOPS pH 7.0
T1 sequence (Q92918 1-346): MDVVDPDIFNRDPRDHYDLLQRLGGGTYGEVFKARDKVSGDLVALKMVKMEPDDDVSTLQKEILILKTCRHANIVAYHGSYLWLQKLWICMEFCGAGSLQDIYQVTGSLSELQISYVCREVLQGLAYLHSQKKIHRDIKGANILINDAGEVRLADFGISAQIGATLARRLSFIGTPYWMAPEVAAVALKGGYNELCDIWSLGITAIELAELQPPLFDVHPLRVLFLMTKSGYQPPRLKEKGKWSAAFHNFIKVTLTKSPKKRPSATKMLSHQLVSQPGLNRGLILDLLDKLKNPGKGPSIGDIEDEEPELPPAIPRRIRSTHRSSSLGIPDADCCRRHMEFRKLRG
In words: HPK1 Human STE Kinase Enzymatic Radiometric Assay. It is filed as biochemical. As to conditions: read-out: HPK1 IC50 nM Range*. How it is done:
A stock solution of 10 mM of test compound is prepared in DMSO. The compound plate was prepared by 3-fold and 9-point serial dilutions. […] The reaction is initiated by The addition of the Mg/ATP mix. After incubation for 40 minutes at RT, the reaction is stopped by the addition of phosphoric acid to a concentration of 0.5%.
Regarding `Cc1nc2cc(-c3cc(-c4ccc(N5CCOCC5)c(CN(C)C)c4)c(F)nc3N)cc(F)c2c(=O)[nH]1` [I-475, 7-(2-amino-5-(3-((dimethylamino)methyl)-4-morpholinophenyl)-6-fluoropyridin-3-yl)-5-fluoro-2-methylquinazolin-4(3H)-one], the 50% inhibitory concentration (IC50) – broadly, the point on the concentration scale where inhibition reaches its midpoint – is 11 to 100 nM.

As to `COc1ccc(-c2cc(-c3ccc4c(c3)CCNC4=O)c(N)nc2F)cc1CN(C)C` [I-459, 6-(2-amino-5-(3-((dimethylamino)methyl)-4-methoxyphenyl)-6-fluoropyridin-3-yl)-3,4-dihydroisoquinolin-1(2H)-one], the half-inhibitory concentration (IC50) lay within 11 to 100 nM. With `Nc1nc(F)c(-c2ccc(N3CCOCC3)c(CN3CCC3)c2)cc1-c1cc2c(cc1F)C(=O)NCC2` [I-550, 6-(2-amino-5-(3-(azetidin-1-ylmethyl)-4-morpholinophenyl)-6-fluoropyridin-3-yl)-7-fluoro-3,4-dihydroisoquinolin-1(2H)-one] the figure was 11 to 100 nM; with `COCCN(C)Cc1nc(-c2cc(-c3ccc4c(c3)CCNC4=O)c(N)nc2F)ccc1N1CCOCC1` [I-582, 6-(6′-amino-2′-fluoro-6-(((2-methoxyethyl)(methyl)amino)methyl)-5-morpholino-[2,3′-bipyridin]-5′-yl)-3,4-dihydroisoquinolin-1(2H)-one], 0.1 to 10 nM; with `Nc1nc(F)c(-c2ccc(N3CCOCC3)c(CN3CCC3)c2F)cc1-c1cc2c(cc1F)C(=O)NCC2` [I-608, 6-(2-amino-5-(3-(azetidin-1-ylmethyl)-2-fluoro-morpholinophenyl)-6-fluoropyridin-3-yl)-7-fluoro-3,4-dihydroisoquinolin-1(2H)-one], 11 to 100 nM. On to `COC1CCN(Cc2cc(-c3cc(-c4cc5c(cc4F)C(=O)NCC5)c(N)nc3F)ccc2N2CCOCC2)CC1` [I-511, 6-(2-amino-6-fluoro-5-(3-((4-methoxypiperidin-1-yl)methyl)-4-morpholinophenyl)pyridin-3-yl)-7-fluoro-3,4-dihydroisoquinolin-1(2H)-one], for which the 50% inhibitory concentration (IC50) was in the range of 11 to 100 nM. Take `COCCN(C)Cc1cc(-c2cc(-c3ccc4c(c3)CCNC4=O)c(N)nc2F)ccc1C1CCOCC1` [I-573, 6-(2-amino-6-fluoro-5-(3-(((2-methoxyethyl)(methyl)amino)methyl)-4-(tetrahydro-2H-pyran-4-yl)phenyl)pyridin-3-yl)-3,4-dihydroisoquinolin-1(2H)-one]: the IC50 was in the range of 0.1 to 10 nM. With `Cc1nc2cc(-c3cc(-c4ccc([C@]56C[C@H]5CN(C)C6)cc4)c(F)nc3N)cc(F)c2c(=O)[nH]1` [I-469, 7-(2-amino-6-fluoro-5-(4-((1S,5R)-3-methyl-3-azabicyclo[3.1.0]hexan-1-yl)phenyl)pyridin-3-yl)-5-fluoro-2-methylquinazolin-4(3H)-one] the figure was 11 to 100 nM; with `CN(C)Cc1cc(-c2cc(-c3ccc4c(c3)CCNC4=O)c(N)nc2F)ccc1N1CCS(=O)(=O)CC1` [I-493, 6-(2-amino-5-(3-((dimethylamino)methyl)-4-(1,1-dioxidothiomorpholino)phenyl)-6-fluoropyridin-3-yl)-3,4-dihydroisoquinolin-1(2H)-one], 11 to 100 nM; with `CN1C[C@@H]2C[C@]2(c2ccc(-c3cc(-c4ccc5c(=O)[nH]cc(F)c5c4)c(N)nc3F)cc2)C1` [I-470, 6-(2-amino-6-fluoro-5-(4-((1S,5R)-3-methyl-3-azabicyclo[3.1.0]hexan-1-yl)phenyl)pyridin-3-yl)-4-fluoroisoquinolin-1(2H)-one], 0.1 to 10 nM. In the case of `C[C@@H]1CN(c2ccc(-c3cc(-c4cc5c(cc4F)C(=O)NCC5)c(N)nc3F)cc2CN(C)C)CCO1` [I-576, (R)-6-(2-amino-5-(3-((dimethylamino)methyl)-4-(2-methylmorpholino)phenyl)-6-fluoropyridin-3-yl)-7-fluoro-3,4-dihydroisoquinolin-1(2H)-one] it was 0.1 to 10 nM; in that of `Nc1nc(F)c(-c2ccc(C3CCOCC3)c(CN3CCC3)n2)cc1-c1cc2c(cc1F)C(=O)NCC2` [I-602, 6-(6′-amino-6-(azetidin-1-ylmethyl)-2′-fluoro-5-(tetrahydro-2H-pyran-4-yl)-[2,3′-bipyridin]-5′-yl)-7-fluoro-3,4-dihydroisoquinolin-1(2H)-one], 0.1 to 10 nM. `Nc1nc(F)c(-c2ccc(C3CCOCC3)c(CN3CCC3)n2)cc1-c1ccc2c(c1)CCNC2=O` [I-605, 6-(6′-amino-6-(azetidin-1-ylmethyl)-2′-fluoro-5-(tetrahydro-2H-pyran-4-yl)-[2,3′-bipyridin]-5′-yl)-3,4-dihydroisoquinolin-1(2H)-one]: the half-maximal inhibitory concentration (IC50) fell in the range of 0.1 to 10 nM. With `C[C@H]1CN(c2ccc(-c3cc(-c4cc5c(cc4F)C(=O)NCC5)c(N)nc3F)cc2CN2CCC2)CCO1` [I-599, (S)-6-(2-amino-5-(3-(azetidin-1-ylmethyl)-4-(2-methylmorpholino)phenyl)-6-fluoropyridin-3-yl)-7-fluoro-3,4-dihydroisoquinolin-1(2H)-one] the figure was 11 to 100 nM. With `CN(C)Cc1c(N2CCOCC2)ccc(-c2cc(-c3cc4c(cc3F)C(=O)NCC4)c(N)nc2F)c1F` [I-607, 6-(2-amino-5-(3-((dimethylamino)methyl)-2-fluoro-4-morpholinophenyl)-6-fluoropyridin-3-yl)-7-fluoro-3,4-dihydroisoquinolin-1(2H)-one] the figure was 11 to 100 nM; with `COc1ccc(-c2cc(-c3ccc4c(c3)CCNC4=O)c(N)nc2F)cc1CN1CCC(OC)CC1` [I-518, 6-(2-amino-6-fluoro-5-(4-methoxy-3-((4-methoxypiperidin-1-yl)methyl)phenyl)pyridin-3-yl)-3,4-dihydroisoquinolin-1(2H)-one], 11 to 100 nM; with `Cc1[nH]c(=O)c2c(F)cc(-c3cc(-c4ccc(C5CCOCC5)c(CN(C)C)c4)c(F)nc3N)cc2c1F` [I-535, 6-(2-amino-5-(3-((dimethylamino)methyl)-4-(tetrahydro-2H-pyran-4-yl)phenyl)-6-fluoropyridin-3-yl)-4,8-difluoro-3-methylisoquinolin-1(2H)-one], 11 to 100 nM.

Take `CO[C@@H]1CCN(Cc2cc(-c3cc(-c4ccc5c(c4)CCNC5=O)c(N)nc3F)ccc2N2CCOCC2)C1` [I-563, (R)-6-(2-amino-6-fluoro-5-(3-((3-methoxypyrrolidin-1-yl)methyl)-4-morpholinophenyl)pyridin-3-yl)-3,4-dihydroisoquinolin-1(2H)-one]: the concentration for half-maximal inhibition (IC50) lay in the range of 11 to 100 nM.

With `COc1ccc(-c2cc(-c3ccc4c(c3)CCNC4=O)c(N)nc2F)cc1CN1CC(OC)C1` [I-516, 6-(2-amino-6-fluoro-5-(4-methoxy-3-((3-methoxyazetidin-1-yl)methyl)phenyl)pyridin-3-yl)-3,4-dihydroisoquinolin-1(2H)-one], the 50% inhibitory concentration (IC50) lay in the range of 11 to 100 nM. Turning to `CN(C)Cc1cc(-c2cc(-c3ccc4c(c3)CCNC4=O)c(N)nc2F)ccc1N1CCN(C2CCC2)CC1` [I-461, 6-(2-amino-5-(4-(4-cyclobutylpiperazin-1-yl)-3-((dimethylamino)methyl)phenyl)-6-fluoropyridin-3-yl)-3,4-dihydroisoquinolin-1(2H)-one], the 50% inhibitory concentration (IC50) fell in the range of 0.1 to 10 nM. In the case of `CN1CCc2c(cccc2-c2cc(-c3cc4c(cc3F)C(=O)NCC4)c(N)nc2F)C1` [I-464, 6-(2-amino-6-fluoro-5-(2-methyl-1,2,3,4-tetrahydroisoquinolin-5-yl)pyridin-3-yl)-7-fluoro-3,4-dihydroisoquinolin-1(2H)-one] it was over 1000 nM. With `CC(C)N1CCN(c2ccc(-c3cc(-c4ccc5c(=O)[nH]cc(Cl)c5c4)c(N)nc3F)cc2)CC1` [I-466, 6-(2-amino-6-fluoro-5-(4-(4-isopropylpiperazin-1-yl)phenyl)pyridin-3-yl)-4-chloroisoquinolin-1(2H)-one], the IC50 lay in the range of 11 to 100 nM. As to `Nc1nc(F)c(-c2ccc(C3CCOCC3)c(CN3CCCC3)c2)cc1-c1cc2c(cc1F)C(=O)NCC2` [I-558, 6-(2-amino-6-fluoro-5-(3-(pyrrolidin-1-ylmethyl)-4-(tetrahydro-2H-pyran-4-yl)phenyl)pyridin-3-yl)-7-fluoro-3,4-dihydroisoquinolin-1(2H)-one], the IC50 lay within 11 to 100 nM.

`C[C@@H]1CN(c2ccc(-c3cc(-c4ccc5c(=O)[nH]cc(F)c5c4)c(N)nc3F)cc2)C[C@H](C)N1C` [I-499, 6-(2-amino-6-fluoro-5-(4-((3R,5S)-3,4,5-trimethylpiperazin-1-yl)phenyl)pyridin-3-yl)-4-fluoroisoquinolin-1(2H)-one]: the half-inhibitory concentration (IC50) lay within 0.1 to 10 nM.

Regarding `CN(C)Cc1cc(-c2cc(-c3ccc4c(c3)CCNC4=O)c(N)nc2F)c(F)cc1N1CCOCC1` [I-622, 6-(2-amino-5-(5-((dimethylamino)methyl)-2-fluoro-4-morpholinophenyl)-6-fluoropyridin-3-yl)-3,4-dihydroisoquinolin-1(2H)-one], the IC50 lay in the range of 11 to 100 nM. With `CC(=O)N1CCC(Oc2ccc(-c3cc(-c4ccc5c(c4)CCNC5=O)c(N)nc3F)cc2CN(C)C)CC1` [I-568, 6-(5-(4-((1-acetylpiperidin-4-yl)oxy)-3-((dimethylamino)methyl)phenyl)-2-amino-6-fluoropyridin-3-yl)-3,4-dihydroisoquinolin-1(2H)-one] the figure was 0.1 to 10 nM. With `CN(C)Cc1cccc(-c2cc(-c3ccc4c(c3)CCNC4=O)c(N)nc2F)c1` [I-594, 6-(2-amino-5-(3-((dimethylamino)methyl)phenyl)-6-fluoropyridin-3-yl)-3,4-dihydroisoquinolin-1(2H)-one] the figure was 11 to 100 nM.

The values above are taken from patent US20240343704A1, “HALO-SUBSTITUTED AMINO PYRIDINE COMPOUNDS AS INHIBITORS OF THE HAEMATOPOIETIC PROGENITOR KINASE 1 (HPK1)” (priority 2021, published 2024).
